Columns and labels:
NCI-H460 = assay: In vitro cytotoxicity, MTT assay; assay type: cell-based, human; details: for Toxicity toward cancer cells compared to that toward MIHA cells: IC50 of MIHA cells/IC50 of cancer cells; for Toxicity toward cancer cells compared to that toward NCM460 cells: IC50 of NCM460 cells/IC50 of cancer cells; for IC50: MTT assay, 72 h incubation
HCT116 cells [1] = assay: Hydrolysis of the gold(III) complexes in live cells, UPLC-QTOF-MS; assay type: in vitro ADME, human; details: 2 μM, 24 h, UPLC-QTOF-MS of lysates
Procedure: Hydrolysis of the gold(III) complexes in live cells has been studied by ultra-performance liquid chromatography coupled quadrupole-time-of-flight mass spectrometry (UPLC-QTOF-MS). Colon cancer cells, HCT116, were treated with 1 and A1 (2 μM) for 24 h, harvested and lysed by acetonitrile-water solution mixture (3:1, v/v) prior to UPLC-QTOF-MS analysis. […] In view of the fact that the peak with retention time of 6.44 min in the total-ion chromatogram of cell lysates of HCT116 treated with 1 was absence in the total-ion chromatogram of 1 in acetonitrile solution, this peak should be owing to the metabolite of 1 formed in HCT116 cells.

non-tumorigenic cells = assay: In vitro cytotoxicity, MTT assay, non-tumorigenic cells; assay type: cell-based; details: 72 h
MIHA = assay: In vitro cytotoxicity, MTT assay; details: MIHA; MTT assay, 72 h incubation
A2780 = assay: In vitro cytotoxicity, MTT assay; assay type: cell-based, human; details: for Toxicity toward cancer cells compared to that toward MIHA cells: IC50 of MIHA cells/IC50 of cancer cells; for Toxicity toward cancer cells compared to that toward NCM460 cells: IC50 of NCM460 cells/IC50 of cancer cells; for IC50: MTT assay, 72 h incubation
NCM460 = assay: In vitro cytotoxicity, MTT assay; assay type: cell-based, human; details: 72 h incubation
A2780adr cells = assay: Cellular uptake by ICP-MS; assay type: cell-based, human; details: 2 μM, 37° C.
Excerpt: Based on the results of previous study on cellular uptake of nanostructures [Davis, M. E. et al. Nat. Rev. Drug Discov. 2008, 7, 771] and the strong dependence of the uptake mechanism of 1 on temperature, K^+ concentration and hypertonic condition (FIG. 3d), nanostructures of 1 likely entered live cells by clathrin-mediated endocytosis.
To rationalize the lower toxicity of NC1 toward MIHA cells, cellular uptake of NC1 by MIHA and cancer cells has been investigated by ICP-MS (FIGS. 3b and 4). The gold contents in A2780 and A2780adr cells were 2.6- and 2.0-fold higher than that in MIHA cells, respectively, after incubation with NC1 for 2 h. […] On the other hand, co-incubation of MIHA cells with 1 and DOX should not lead to significant changes in cellular uptake rate of DOX. […] For NC1, it was less toxic toward MIHA cells as reflected by the apparent “strong antagonism” (Table 3), which should be owing to the decrease of DOX cellular uptake by the encapsulation from the nanostructures of 1, rather than real antagonism from DOX and 1.

A2780cis = assay: In vitro cytotoxicity, MTT assay; assay type: cell-based, human; details: for Toxicity toward cancer cells compared to that toward MIHA cells / Toxicity toward cancer cells compared to that toward NCM460 cells / IC50: A2780cis; for Toxicity toward cancer cells compared to that toward MIHA cells: IC50 of MIHA cells/IC50 of cancer cells; for Toxicity toward cancer cells compared to that toward NCM460 cells: IC50 of NCM460 cells/IC50 of cancer cells; for IC50: MTT assay, 72 h incubation; for Resistance found in A2780cis: Determined by IC50 of A2780cis cells/IC50 of A2780 cells
HCT116 = assay: In vitro cytotoxicity, MTT assay; assay type: cell-based, human; details: for IC50: HCT116, MTT assay, 72 h incubation; for Toxicity toward cancer cells compared to that toward MIHA cells / Toxicity toward cancer cells compared to that toward NCM460 cells: HCT-116; for Toxicity toward cancer cells compared to that toward MIHA cells: IC50 of MIHA cells/IC50 of cancer cells; for Toxicity toward cancer cells compared to that toward NCM460 cells: IC50 of NCM460 cells/IC50 of cancer cells
HeLa = assay: In vitro cytotoxicity, MTT assay; assay type: cell-based, human; details: for Toxicity toward cancer cells compared to that toward MIHA cells: IC50 of non-tumorigenic MIHA cells/IC50 of cancer cells; for Toxicity toward cancer cells compared to that toward NCM460 cells: IC50 of non-tumorigenic NCM460 cells/IC50 of cancer cells; for IC50: MTT assay, 72 h incubation, read-out: IC50
Excerpt: Therefore, it was anticipated that a not too high loading of DOX into nanostructures of 1 could be used for anti-cancer purposes in order to maintain low toxicity toward non-tumorigenic cells. Together with the higher encapsulation efficiency of DOX, NC1 was selected for investigations of the in vitro cytotoxicity. […] The in vitro cytotoxicity of NC1 was also compared to that of the mixture of nanostructures of 1 and DOX. […] The observed cytotoxicity was further evaluated by the combination index (CI), which can describe the effect of drug combination. […] It is shown that dose and effect are interchangeable via defined parameters. This general equation for the single drug effect has been extended to the multiple drug effect equation for n drugs. These equations provide the theoretical basis for the combination index (CI)-isobologram equation that allows quantitative determination of drug interactions, where CI<1, =1, and >1 indicate synergism, additive effect, and antagonism, respectively. [Chou, et al. Pharmacol. Rev. 2006, 58, 621] […] The synergistic effect can originate from different molecular targets and/or mechanism of action of DOX from that of gold(III) porphyrin complexes. […] These different modes of action would allow supra-additive effect on killing HeLa cells by the co-delivery.

HCT116 xenografts = assay type: in vivo; details: 4 mg/kg intravenous, 24 days, n=8, p<0.01
Excerpt: FIGS. 8B and 8C show changes in tumor volume and body weight, respectively, in mice (n=8) after treatment with different doses of 1 or A1. The control group received an equal volume of PBS only. ** denotes p<0.01 vs. control.
Significant pulmonary hemorrhage in the alveoli and a thickening of alveolar walls were found. Also, apoptotic hepatocytes and swollen renal epithelial cells were found, leading to subsequent shrinkage of kidney tubules. […] The lower systemic toxicity of 1 can be explained by the lower accumulation of 1 in the organs of mice treated at its effective dosage, as compared to that of A1 and Au1a (FIG. 10).

[2] = Systemic toxicity in mice bearing HCT116 xenografts (body weight, histopathology, blood biochemistry); assay type: in vivo
Excerpt: FIGS. 9A-9H show blood biochemistry analysis of ALT, AST, GLB, BUN, CREA, UA, LDH and CK, respectively, in the mice (n=8) at 24 days post-treatment.

CCD-19Lu = assay: In vitro cytotoxicity, MTT assay; assay type: cell-based; details: 72 h incubation
A2780adr = details: for Toxicity toward cancer cells compared to that toward MIHA cells / Toxicity toward cancer cells compared to that toward NCM460 cells / IC50: A2780adr; for Toxicity toward cancer cells compared to that toward MIHA cells: IC50 of MIHA cells/IC50 of cancer cells; for Toxicity toward cancer cells compared to that toward NCM460 cells: IC50 of NCM460 cells/IC50 of cancer cells; for IC50: MTT assay, 72 h incubation; for Resistance found in A2780adr: Determined by IC50 of A2780adr cells/IC50 of A2780 cells
NCM460 cells [3] = assay: Induction of apoptosis, CellEvent Caspase-3/7 Green (microscopy and flow cytometry); details: NCM460, 2 μM, fluorescence microscopy
HCT116 cells [4] = assay: as above; assay type: cell-based, human; details: HCT116, 2 μM, fluorescence microscopy
NCM460 cells [5] = assay: Apoptosis by FITC-Annexin V staining, flow cytometry; assay type: cell-based, human; details: NCM460, 2 μM, 24 h
Excerpt: (§1) The selective induction of apoptosis of HCT116 cells over NCM460 cells by 1 was further studied using FITC-Annexin V staining. Phosphatidylserine residues, which are located on the cytoplasmic surface of the cell membrane in normal live cells, will be translocated to outer plasma membrane in apoptotic cells. […] The quantity of apoptotic cells stained by FITC-Annexin V after treatment with 1 and Au1a was investigated by flow cytometry.

HCT116 cells [6] = assay: as above; assay type: cell-based, human; details: HCT116, 2 μM, 24 h
Excerpt: as §1

NCM460 cells [7] = assay: Apoptosis in co-culture cell model of HCT116 and NCM460; assay type: cell-based, human; details: NCM460 in co-culture, 2 μM, 24 h, Caspase-3/7 Green Reagent, flow cytometry
Procedure: (§2) In order to differentiate the two different cell lines, NCM460 cells were pre-treated by blue-emissive CMF2HC dye prior to its co-culture with HCT116 cells. […] On the other hand, the co-culture model treated with 1 for 24 h was stained by FITC-Annexin V and propidium iodide, and imaged by fluorescence microscopy. Green and red fluorescence were primarily observed in cells without showing blue luminescence, i.e. HCT16 cells. […] The results of both fluorescence microscopy and flow cytometry support the high selectivity of 1 on killing colon cancer cells in the co-culture model of cancer and normal cells.
(§3) This co-culture model treated with 1 for 24 h had 25.04 and 5.01% of HCT116 and NCM460 cells, respectively, undergoing apoptosis as determined by Caspase-3/7 Green Reagent staining and flow cytometric analysis. This confirms the preferential induction of apoptosis by 1 of HCT116 cells over NCM460 cells in the co-culture model, regardless of the effect, if any, of the blue emissive CMF2HC dye.

HCT116 cells [8] = assay: as above; assay type: cell-based, human; details: 2 μM, 24 h, Caspase-3/7 Green Reagent, flow cytometry
Procedure: as §2, §3

[9] = acute toxicological study, Chem. Commun. 2011, 47, 9554; cited from earlier work

SMILES | Toxicity toward cancer cells compared to that toward MIHA cells (NCI-H460) | Toxicity toward cancer cells compared to that toward NCM460 cells (NCI-H460) | IC50 (NCI-H460) | IC50 for non-tumorigenic cells (non-tumorigenic cells) | IC50 (MIHA) | Toxicity toward cancer cells compared to that toward MIHA cells (A2780) | Toxicity toward cancer cells compared to that toward NCM460 cells (A2780) | IC50 (A2780) | IC50 (NCM460) | Incubation time after which amount in A2780adr cells decreases (A2780adr cells) | Toxicity toward cancer cells compared to that toward MIHA cells (A2780cis) | Toxicity toward cancer cells compared to that toward NCM460 cells (A2780cis) | IC50 (A2780cis) | Resistance found in A2780cis (A2780cis) | IC50 (HCT116) | Toxicity toward cancer cells compared to that toward MIHA cells (HCT116) | Toxicity toward cancer cells compared to that toward NCM460 cells (HCT116) | Toxicity toward cancer cells compared to that toward MIHA cells (HeLa) | Toxicity toward cancer cells compared to that toward NCM460 cells (HeLa) | IC50 (HeLa) | other results
COC(=O)c1ccc(-c2c3nc(c(-c4ccccc4)c4ccc([n-]4)c(-c4ccccc4)c4nc(c(-c5ccccc5)c5ccc2[n-]5)C=C4)C=C3)cc1.[Au+3].[Cl-] [A1] | 7.0 | 1.3 | 100 ± 10 nM | submicromolar range | 700 ± 100 nM | 3.5 | 0.7 | 200 ± 20 nM | 130 ± 10 nM | 0.75 h | 3.5 | 0.7 | 200 ± 30 nM | 1.0 | 90 ± 10 nM | 7.7 | 1.4 | 0.9 | 0.2 | 800 ± 100 nM | Species formed by hydrolysis of ester bond in cells (HCT116 cells [1]): [Au(TPP—COOH)]^+; Reduction of tumor volume (HCT116 xenografts): 56%; Reduction of tumor weight (HCT116 xenografts): 49%; Blood biochemistry (organ damage indicators) ([2]; 4 mg/kg, for 1: ALT, GLB, BUN and CK, p<0.05): significant damage in the lung, liver and kidney; Histopathological analysis of lung, liver, kidney, heart and spleen ([2]; after treatment (A1: 4 mg/kg)): damage in normal lung, liver and kidney tissues; IC50 (CCD-19Lu): 730 ± 40 nM; Toxicity toward cancer cells compared to that toward MIHA cells (A2780adr): 1.1; Toxicity toward cancer cells compared to that toward NCM460 cells (A2780adr): 0.2; IC50 (A2780adr): 650 ± 60 nM; Resistance found in A2780adr (A2780adr): 0.31
C1=Cc2nc1c(-c1ccccc1)c1ccc([n-]1)c(-c1ccccc1)c1nc(c(-c3ccccc3)c3ccc([n-]3)c2-c2ccccc2)C=C1.[Au+3].[Cl-] [Au1a, [Au(TPP)]Cl, reference compound] | 1.7 | 0.3 | 230 ± 10 nM | submicromolar range | 400 ± 70 nM | 3.3 | 0.6 | 120 ± 20 nM | 70 ± 10 nM | 0.5 h | 3.5 | 0.4 | 180 ± 10 nM | 0.67 | 90 ± 20 nM | 4.4 | 0.8 | 0.6 | 0.1 | 660 ± 40 nM | Incubation time to induction of apoptosis (NCM460 cells [3]): 20 h; Incubation time to large number of apoptotic events (NCM460 cells [3]): 32 h; Incubation time to induction of apoptosis (HCT116 cells [4]): 12 h; Incubation time to significant apoptotic events / large population of apoptotic cells (HCT116 cells [4]): 32 h; Percentage of apoptotic cells (NCM460 cells [5]): 39.3%; Percentage of apoptotic cells (HCT116 cells [6]): 39.6%; Population percentage of apoptotic cells (corrected) (NCM460 cells [7]): 29.3%; Population percentage of apoptotic cells (corrected) (HCT116 cells [8]): 54.6%; Effective dose to combat tumor growth relative to lethal dose [9]: close to the lethal dose; IC50 (CCD-19Lu): 230 ± 40 nM; Toxicity toward cancer cells compared to that toward MIHA cells (A2780adr): 0.4; Toxicity toward cancer cells compared to that toward NCM460 cells (A2780adr): 0.06; IC50 (A2780adr): 1100 ± 100 nM; Resistance found in A2780adr (A2780adr): 0.11
